Experimental data from article PMC11878344 (Angewandte Chemie (International Ed. in English), 2025).

Assays:
[1] = test system: serine hydrolases of the mouse brain proteome (MAGL, DAGL, FAAH, ABHD6, ABHD12); test: Competitive multiplex ABPP in mouse brain proteome; format: biochemical; details: 1 μM probe
Description: (§1) Activity‐based protein profiling (ABPP)[49] was used to determine the selectivity of the reversible probes (9, 10) versus a broad range of other serine hydrolases, including the relevant ECS off‐targets DAGL, FAAH, ABHD6, and ABHD12.[45, 49, 50, 51] The ABPP assay was studied in the mouse brain proteome (MBP) at 1 μM concentration as mouse brain homogenate is the most relevant model system for studying ECS enzymes.[45, 49, 50, 51] […] The irreversible probes 11 and 12 could be used to visualize MAGL by in‐gel SDS‐PAGE fluorescence of MBP samples and, thereby, directly showing the specificity of 11 and 12 towards the two MAGL splicing variants present in MBP over a broad range of concentrations. Starting at 1 nM probe concentration, MAGL was detected and only at elevated concentrations greater than 1 μM, minor off‐target protein labeling at approx. 80 kDa started to appear (Figure 3 B). In addition to testing in mouse brain lysates, we also determined the binding of MAGL probes 9–12 towards a panel of 50 off‐targets via a competitive radioligand binding screen to detect interference with potential safety‐related off‐targets (Figure 3 C).
(§2) Mouse brain sample preparation. […] Protein concentration was determined with Bradford Assay, and samples were diluted to a final concentration of 2.0 mg/mL. […]

[2] = molecular target: T1, MAGL splicing variants in mouse brain proteome (Mus musculus, UniProt O35678); test: In-gel SDS-PAGE fluorescence labeling of mouse brain proteome with irreversible probes; format: biochemical
T1 sequence (O35678 1-303): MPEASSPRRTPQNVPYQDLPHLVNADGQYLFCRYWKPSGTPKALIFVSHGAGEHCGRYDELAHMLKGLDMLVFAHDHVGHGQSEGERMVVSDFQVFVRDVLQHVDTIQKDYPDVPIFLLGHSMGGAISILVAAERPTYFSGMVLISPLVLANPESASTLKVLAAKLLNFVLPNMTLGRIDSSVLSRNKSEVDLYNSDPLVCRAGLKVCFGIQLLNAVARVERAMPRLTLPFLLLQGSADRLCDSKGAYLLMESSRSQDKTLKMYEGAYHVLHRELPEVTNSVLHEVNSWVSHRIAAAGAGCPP
Description: as §1, §2

| SMILES | Blocking of serine hydrolase fluorescence signal (selectivity) [1] | Probe concentration at which minor off-target protein labeling (approx. 80 kDa) appears [2] | Probe concentration from which MAGL was detected [2] [nM] |
| --- | --- | --- | --- |
| CN(C)c1ccc2c(c1)[Si](C)(C)c1cc(N(C)C)ccc1C21OC(=O)c2ccc(C(=O)NCCCCCOc3ccccc3CC3CC4(C3)CN(C(=O)N3CC5(COC(=O)N5)C3)C4)cc21 (stereo not drawn) [Compound 10] | Complete blocking of the fluorescence signal was exclusively observed for MAGL |  |  |
| CN(C)c1ccc2c(c1)[Si](C)(C)c1cc(N(C)C)ccc1C21OC(=O)c2ccc(C(=O)NCCCCCOc3ccccc3CC3CC4(C3)CN(C(=O)OC(C(F)(F)F)C(F)(F)F)C4)cc21 (stereo not drawn) [Compound 12] |  | greater than 1 μM | ≥ 1 |
